# Patent US20250333407A1, “Compounds and Their Use for Treatment of Hemoglobinopathies” (Bristol-Myers Squibb Company, priority 2024, published 2025)
# How the values were obtained:
# Assay type in all cases: cell-based
# HbF = HbF HiBiT induction assay in HUDEP-2 cells; details: HUDEP-2 cells with HiBiT tag in HBG1/2, 72 hours of treatment; area under the dose response curve, higher AUC = greater HbF induction
# Experimental: HbF HiBiT induction assay. The HiBiT induction assay for HbF in HUDEP-2 cells was performed as described below. HUDEP-2 cells engineered to express a HiBiT tag in HBG1/2 were maintained at a density of 0.1-1×10^6 cells/ml in StemSpan SFEM II supplemented with 1% penicillin/streptomycin, hSCF (50 ng/mL), erythropoietin (EPO; 3 IU/mL), dexamethasone (DEX; 0.4 μg/mL), and doxycycline hyclate (DOX; 1 μg/mL). The cells were cultured in low adherence flasks, in a humidified incubator, set at 37° C. with 5% CO2. Cell counts and viability were measured by trypan blue exclusion using the Vi-CELL XR cell viability analyzer and the cell growth was consistently maintained in log phase.
# Prior to the start of experiments, HbF HiBiT-tagged HUDEP-2 cells were transferred to a 50 mL conical and centrifuged at 500×g for 5 minutes, the supernatant removed, and the pellet washed in 5 mL of 1×PBS. The washed cells were centrifuged again at 500×g for 5 minutes and resuspended in IMDM containing; 1×glutamine, 1×penicillin/streptomycin, holo-transferrin (330 μg/mL), heparin (2 IU/mL), r-human insulin (10 μg/mL), EPO (3 IU/mL), 5% human plasma, hSCF (100 ng/mL) and DOX (1 μg/mL) to a final density of 0.3×10^6 cells/mL. Forty microliters of cell suspension were dispensed into 384-well Low Flange White Flat Bottom Polystyrene TC-treated Microplates containing pre-dispensed compounds, using a VIAFLO 384 liquid hander, and placed in a humidified incubator at 37° C. with 5% CO2. […] After 72 hours of treatment, 40 μL of Nano-Glo HiBiT Lytic Solution (prepared according to manufacturer's instructions) were dispensed into each well using a VIAFLO 384 liquid handler, and the plates were shaken for 20 seconds. Plates were incubated for 20 minutes at room temperature, and the luminescence was read as relative luminescent units using an EnVision plate reader.
# Dose response curves were generated, and EC50, Ymax, and then area under the curve (AUC) values were calculated. HbF induction was measured using the calculated area under the curve (AUC) value, with higher AUC values indicative of greater HbF induction relative to lower AUC values.
# ZBTB7A = molecular target: T1, ZBTB7A (Homo sapiens, UniProt O95365+Q96SW2); experiment: HUDEP-2 ZBTB7A HiBiT degradation assay; details: HiBiT-tagged ZBTB7A degradation in HUDEP-2 cells, 24 hours of treatment; read-out: ZBTB7A EC50
# T1 construct: HUDEP-2 cells engineered to express a HiBiT tag in either the WIZ (Widely interspaced zinc finger) or ZBTB7A
# Experimental: (§1) WIZ Assay and ZBTB7A EC50 Assays. The HiBiT degradation assays for WIZ and ZBTB7A in HUDEP-2 cells were performed as described below. HUDEP-2 cells engineered to express a HiBiT tag in either the WIZ (Widely interspaced zinc finger) or ZBTB7A (Zinc Finger And BTB Domain Containing 7A) proteins were maintained in low attachment flasks in StemSpan SFEM II media supplemented with Penicillin-Streptomycin (50 U/mL), rhSCF (50 ng/mL), rhEPO (3 IU/mL), dexamethasone (0.4 μg/mL) and doxycycline (1 μg/mL). Prior to start of the assay, cell count and viability were measured by trypan blue exclusion using the Vi-cell XR cell viability analyzer.
# For the HUDEP-2 ZBTB7A HiBiT assay, cell count and viability were measured by trypan blue exclusion using the Vi-cell XR cell viability analyzer and the cells were transferred to a 50 mL conical and centrifuged at 500 g for five minutes. Cells were resuspended in fresh IMDM media supplemented with L-Glutamine (1×), Penicillin-Streptomycin (50 U/mL), holo-transferrin (330 μg/mL), heparin (2 IU/mL), r-human Insulin (10 μg/mL), rhEPO (3 IU/mL), rhSCF (100 ng/mL)+Dox (1 μg/mL) and 5% human plasma in low attachment flasks, which were placed in a 37° C. incubator with 5% CO2. After 48 hours, cell count and viability were measured by trypan blue exclusion using the Vi-cell XR cell viability analyzer. The HUDEP-2 ZBTB7A cells were transferred to a 50 mL conical, centrifuged at 500 g for five minutes and resuspended at a density of 1.0×10^6 cells/ml in IMDM media supplemented with L-Glutamine (1×), Penicillin-Streptomycin (50 U/mL), holo-transferrin (330 μg/mL), heparin (2 IU/mL), r-human Insulin (10 μg/mL), rhEPO (3 IU/mL), rhSCF (100 ng/mL)+Dox (1 μg/mL) and 5% human plasma. Forty microliters of cell suspension was dispensed into 384-well Low Flange White Flat Bottom Polystyrene TC-treated Microplates containing pre-dispensed compounds, using a VIAFLO 384 liquid hander, and placed in a 37° C. incubator with 5% CO2. […] After 24 hours of treatment, 40 μL Nano-Glo HiBiT Lytic Detection System reagent was dispensed into each well using a VIAFLO 384 liquid hander. Plates were incubated for 25 minutes at room temperature and the luminescence was read as relative luminescent units using the EnVision plate reader. EC50 and Y-min values were calculated using curves calculated from dotmatics software after the normalization to the DMSO control of 10 different concentrations: 10, 3.33, 1.11, 0.37, 0.12, 0.04 0.0137, 0.0046, 0.0015 and […] respectively.
# WIZ = molecular target: T2, WIZ (Homo sapiens, UniProt O95785+Q96SW2); experiment: HUDEP-2 WIZ HiBiT degradation assay; details: HiBiT-tagged WIZ degradation in HUDEP-2 cells, 24 hours of treatment; read-out: WIZ EC50
# T2 construct: HUDEP-2 cells engineered to express a HiBiT tag in either the WIZ (Widely interspaced zinc finger) or ZBTB7A
# Experimental: as §1
# For the HUDEP-2 WIZ HiBiT assay, cells were transferred to a 50 mL conical and centrifuged at 500 g for five minutes. Cells were resuspended in fresh StemSpan SFEM II media supplemented with Penicillin-Streptomycin (50 U/mL), rhSCF (50 ng/mL), rhEPO (3 IU/mL), dexamethasone (0.4 μg/mL) and doxycycline (1 μg/mL) at a density of 1.0×10^6 cells/ml. Forty microliters of cell suspension was dispensed into 384-well Low Flange White Flat Bottom Polystyrene TC-treated Microplates containing pre-dispensed compounds, using a VIAFLO 384 liquid hander, and placed in a 37° C. incubator with 5% CO2. […] After 24 hours of treatment, 40 μL Nano-Glo HiBiT Lytic Detection System reagent was dispensed into each well using a VIAFLO 384 liquid hander. Plates were incubated for 25 minutes at room temperature and the luminescence was read as relative luminescent units using the EnVision plate reader. EC50 and Y-min values were calculated using curves calculated from dotmatics software after the normalization to the DMSO control of 10 different concentrations: 10, 3.33, 1.11, 0.37, 0.12, 0.04 0.0137, 0.0046, 0.0015 and […] respectively.
# T1 sequence (O95365 whole entry): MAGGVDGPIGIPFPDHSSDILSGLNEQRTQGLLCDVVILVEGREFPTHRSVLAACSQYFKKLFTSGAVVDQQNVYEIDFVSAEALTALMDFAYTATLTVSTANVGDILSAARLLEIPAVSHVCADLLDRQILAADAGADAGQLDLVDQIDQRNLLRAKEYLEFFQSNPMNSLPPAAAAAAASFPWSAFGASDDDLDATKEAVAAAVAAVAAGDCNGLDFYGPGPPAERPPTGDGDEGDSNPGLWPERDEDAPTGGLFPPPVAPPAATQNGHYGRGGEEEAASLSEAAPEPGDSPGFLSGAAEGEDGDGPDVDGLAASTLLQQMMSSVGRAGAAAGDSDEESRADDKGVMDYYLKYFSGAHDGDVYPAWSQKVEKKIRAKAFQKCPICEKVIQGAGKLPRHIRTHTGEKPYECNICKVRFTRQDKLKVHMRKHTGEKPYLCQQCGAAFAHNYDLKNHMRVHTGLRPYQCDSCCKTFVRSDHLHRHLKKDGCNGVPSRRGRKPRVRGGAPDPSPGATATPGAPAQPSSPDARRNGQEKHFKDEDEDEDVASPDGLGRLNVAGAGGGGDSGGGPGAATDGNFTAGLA
# T1 sequence (Q96SW2 whole entry): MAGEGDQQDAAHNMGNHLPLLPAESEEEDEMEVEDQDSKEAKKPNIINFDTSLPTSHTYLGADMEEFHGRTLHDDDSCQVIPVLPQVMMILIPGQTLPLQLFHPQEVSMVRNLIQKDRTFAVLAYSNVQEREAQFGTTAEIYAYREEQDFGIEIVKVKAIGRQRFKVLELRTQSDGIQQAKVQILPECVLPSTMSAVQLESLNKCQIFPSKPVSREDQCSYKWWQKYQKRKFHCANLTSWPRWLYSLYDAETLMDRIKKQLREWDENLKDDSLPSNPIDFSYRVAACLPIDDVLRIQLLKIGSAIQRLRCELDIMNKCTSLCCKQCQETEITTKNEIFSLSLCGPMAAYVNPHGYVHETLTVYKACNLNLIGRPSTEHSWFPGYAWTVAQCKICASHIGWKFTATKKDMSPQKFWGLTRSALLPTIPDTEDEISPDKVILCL
# T1 sequence (Q16531 whole entry partner): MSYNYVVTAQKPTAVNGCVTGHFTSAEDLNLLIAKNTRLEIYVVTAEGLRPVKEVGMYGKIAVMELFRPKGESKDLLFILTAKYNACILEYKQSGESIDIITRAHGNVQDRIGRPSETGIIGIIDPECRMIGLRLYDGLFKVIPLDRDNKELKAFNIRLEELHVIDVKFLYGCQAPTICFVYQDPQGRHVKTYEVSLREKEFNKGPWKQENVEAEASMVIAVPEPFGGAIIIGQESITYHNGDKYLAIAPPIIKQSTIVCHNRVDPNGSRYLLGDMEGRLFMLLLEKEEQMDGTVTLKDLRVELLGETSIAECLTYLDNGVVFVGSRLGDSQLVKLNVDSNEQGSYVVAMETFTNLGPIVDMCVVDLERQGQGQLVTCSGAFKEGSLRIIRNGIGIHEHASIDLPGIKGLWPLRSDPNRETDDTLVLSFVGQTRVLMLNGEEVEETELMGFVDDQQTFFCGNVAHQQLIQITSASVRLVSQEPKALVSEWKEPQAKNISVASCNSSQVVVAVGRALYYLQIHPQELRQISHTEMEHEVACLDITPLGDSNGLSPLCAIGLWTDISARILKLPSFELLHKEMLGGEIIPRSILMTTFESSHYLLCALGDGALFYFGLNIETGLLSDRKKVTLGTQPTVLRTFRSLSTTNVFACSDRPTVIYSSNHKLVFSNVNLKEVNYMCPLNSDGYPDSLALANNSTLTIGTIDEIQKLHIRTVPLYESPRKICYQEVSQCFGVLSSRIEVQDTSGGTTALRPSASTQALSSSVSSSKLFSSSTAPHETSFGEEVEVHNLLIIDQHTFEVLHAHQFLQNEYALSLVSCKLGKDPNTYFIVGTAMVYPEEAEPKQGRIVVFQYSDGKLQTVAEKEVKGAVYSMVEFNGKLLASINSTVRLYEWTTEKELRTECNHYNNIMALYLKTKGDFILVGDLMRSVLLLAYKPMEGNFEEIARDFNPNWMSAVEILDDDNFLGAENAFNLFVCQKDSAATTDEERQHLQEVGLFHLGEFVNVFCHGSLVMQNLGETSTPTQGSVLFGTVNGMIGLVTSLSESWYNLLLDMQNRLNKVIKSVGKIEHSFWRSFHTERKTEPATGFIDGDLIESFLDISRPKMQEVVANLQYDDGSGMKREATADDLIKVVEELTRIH
# T2 sequence (O95785 whole entry): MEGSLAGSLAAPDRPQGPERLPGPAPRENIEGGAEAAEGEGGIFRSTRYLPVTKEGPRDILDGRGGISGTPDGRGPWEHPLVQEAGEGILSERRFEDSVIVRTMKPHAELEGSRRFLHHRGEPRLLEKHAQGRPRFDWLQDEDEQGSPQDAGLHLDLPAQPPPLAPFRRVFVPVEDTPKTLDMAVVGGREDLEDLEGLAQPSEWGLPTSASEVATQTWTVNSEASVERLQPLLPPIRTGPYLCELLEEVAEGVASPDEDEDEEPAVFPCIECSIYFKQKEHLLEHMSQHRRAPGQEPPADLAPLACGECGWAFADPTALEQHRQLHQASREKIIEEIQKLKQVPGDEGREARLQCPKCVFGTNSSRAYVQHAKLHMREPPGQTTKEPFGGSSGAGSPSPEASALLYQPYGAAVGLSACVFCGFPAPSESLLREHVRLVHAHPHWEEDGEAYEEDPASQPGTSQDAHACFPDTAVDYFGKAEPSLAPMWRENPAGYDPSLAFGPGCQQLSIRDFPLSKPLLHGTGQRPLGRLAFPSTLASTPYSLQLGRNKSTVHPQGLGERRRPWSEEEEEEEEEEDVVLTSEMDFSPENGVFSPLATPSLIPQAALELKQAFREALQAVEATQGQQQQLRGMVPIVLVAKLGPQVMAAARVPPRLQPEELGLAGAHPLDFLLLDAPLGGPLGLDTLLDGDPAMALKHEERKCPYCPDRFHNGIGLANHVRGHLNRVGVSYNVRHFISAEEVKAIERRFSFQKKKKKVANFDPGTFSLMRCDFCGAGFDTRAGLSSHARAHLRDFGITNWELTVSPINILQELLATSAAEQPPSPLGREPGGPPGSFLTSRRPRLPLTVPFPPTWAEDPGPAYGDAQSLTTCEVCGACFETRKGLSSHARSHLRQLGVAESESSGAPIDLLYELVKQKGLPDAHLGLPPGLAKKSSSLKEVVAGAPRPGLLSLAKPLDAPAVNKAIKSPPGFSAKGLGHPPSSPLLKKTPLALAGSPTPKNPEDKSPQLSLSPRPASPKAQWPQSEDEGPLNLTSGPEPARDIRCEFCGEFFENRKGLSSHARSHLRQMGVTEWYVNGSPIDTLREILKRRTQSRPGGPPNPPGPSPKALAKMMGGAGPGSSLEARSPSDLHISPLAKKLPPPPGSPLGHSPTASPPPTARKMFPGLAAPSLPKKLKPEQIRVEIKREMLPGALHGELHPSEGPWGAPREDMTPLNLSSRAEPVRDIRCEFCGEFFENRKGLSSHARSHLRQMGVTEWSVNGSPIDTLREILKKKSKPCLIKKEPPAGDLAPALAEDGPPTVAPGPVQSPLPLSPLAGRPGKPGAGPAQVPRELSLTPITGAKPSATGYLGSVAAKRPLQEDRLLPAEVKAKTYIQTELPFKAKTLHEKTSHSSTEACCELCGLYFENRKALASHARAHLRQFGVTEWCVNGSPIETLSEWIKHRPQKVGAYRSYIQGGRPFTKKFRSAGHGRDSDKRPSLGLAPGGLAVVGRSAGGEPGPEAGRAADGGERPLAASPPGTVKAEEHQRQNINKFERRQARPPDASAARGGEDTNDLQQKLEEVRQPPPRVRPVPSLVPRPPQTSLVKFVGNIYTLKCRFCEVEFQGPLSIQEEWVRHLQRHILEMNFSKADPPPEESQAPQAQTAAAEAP
# T2 sequence (Q96SW2 whole entry): as the sequence (Q96SW2 whole entry) above
# T2 sequence (Q16531 whole entry partner): as the sequence (Q16531 whole entry partner) above
Structure (SMILES),HBF AUC (HbF),DC50 (ZBTB7A) [nM],DC50 (WIZ) [nM]
"Cc1cc(-c2cc3c(cc2Nc2cccc4c2C(=O)N([C@@H]2CCC(=O)NC2=O)C4=O)N(C)C(=O)OC3)ccn1 [Compound 12, (R)-2-(2,6-dioxopiperidin-3-yl)-4-((1-methyl-6-(2-methylpyridin-4-yl)-2-oxo-1,4-dihydro-2H-benzo[d][1,3]oxazin-7-yl)amino)isoindoline-1,3-dione]",+ (+ = 15 ≤ AUC < 100),34,37
"Cc1cc(-c2cc3c(cc2Nc2cccc4c2C(=O)N(C2CCC(=O)NC2=O)C4=O)N(C)C(=O)CO3)cc(F)c1F (stereo not drawn) [Compound 13, 4-((7-(3,4-difluoro-5-methylphenyl)-4-methyl-3-oxo-3,4-dihydro-2H-benzo[b][1,4]oxazin-6-yl)amino)-2-(2,6-dioxopiperidin-3-yl)isoindoline-1,3-dione]",+ (+ = 15 ≤ AUC < 100),38,50
"CNc1cc(-c2cc3c(cc2Nc2cccc4c2C(=O)N(C2CCC(=O)NC2=O)C4=O)N(C)C(=O)CO3)ccn1 (stereo not drawn) [Compound 14, 2-(2,6-dioxopiperidin-3-yl)-4-((4-methyl-7-(2-(methylamino)pyridin-4-yl)-3-oxo-3,4-dihydro-2H-benzo[b][1,4]oxazin-6-yl)amino)isoindoline-1,3-dione]",+ (+ = 15 ≤ AUC < 100),17,12
"CN(C)c1cc(-c2cc3c(cc2Nc2cccc4c2C(=O)N(C2CCC(=O)NC2=O)C4=O)N(C)C(=O)CO3)ccn1 (stereo not drawn) [Compound 15, 4-((7-(2-(dimethylamino)pyridin-4-yl)-4-methyl-3-oxo-3,4-dihydro-2H-benzo[b][1,4]oxazin-6-yl)amino)-2-(2,6-dioxopiperidin-3-yl)isoindoline-1,3-dione]",+ (+ = 15 ≤ AUC < 100),22,7
"CCOc1cc(-c2cc3c(cc2Nc2cccc4c2C(=O)N(C2CCC(=O)NC2=O)C4=O)N(C)C(=O)CO3)cc(C)n1 (stereo not drawn) [Compound 16, 2-(2,6-dioxopiperidin-3-yl)-4-((7-(2-ethoxy-6-methylpyridin-4-yl)-4-methyl-3-oxo-3,4-dihydro-2H-benzo[b][1,4]oxazin-6-yl)amino)isoindoline-1,3-dione]",+ (+ = 15 ≤ AUC < 100),73,32
"COc1cc(-c2cc3c(cc2Nc2cccc4c2C(=O)N([C@H]2CCC(=O)NC2=O)C4=O)N(C)C(=O)CO3)ccn1 [Compound 17, (S)-2-(2,6-dioxopiperidin-3-yl)-4-((7-(2-methoxypyridin-4-yl)-4-methyl-3-oxo-3,4-dihydro-2H-benzo[b][1,4]oxazin-6-yl)amino)isoindoline-1,3-dione]",+++ (+++ = AUC ≥ 150),18,13
"Cc1cc(-c2cc3c(cc2Nc2cccc4c2C(=O)N([C@H]2CCC(=O)NC2=O)C4=O)N(C)C(=O)CO3)ccn1 [Compound 18, (S)-2-(2,6-dioxopiperidin-3-yl)-4-((4-methyl-7-(2-methylpyridin-4-yl)-3-oxo-3,4-dihydro-2H-benzo[b][1,4]oxazin-6-yl)amino)isoindoline-1,3-dione]",+++ (+++ = AUC ≥ 150),11,11
"Cc1cc(-c2cc3c(cc2Nc2cccc4c2C(=O)N(C2CCC(=O)NC2=O)C4=O)N(C)C(=S)CC3)ccn1 (stereo not drawn) [Compound 19, 2-(2,6-dioxopiperidin-3-yl)-4-((1-methyl-6-(2-methylpyridin-4-yl)-2-thioxo-1,2,3,4-tetrahydroquinolin-7-yl)amino)isoindoline-1,3-dione]",++ (++ = 100 ≤ AUC < 150),21,28
"CC[C@@H]1Oc2cc(-c3ccnc(C)c3)c(Nc3cccc4c3C(=O)N([C@H]3CCC(=O)NC3=O)C4=O)cc2N(C)C1=O [Compound 20, 2-((S)-2,6-dioxopiperidin-3-yl)-4-(((S)-2-ethyl-4-methyl-7-(2-methylpyridin-4-yl)-3-oxo-3,4-dihydro-2H-benzo[b][1,4]oxazin-6-yl)amino)isoindoline-1,3-dione]",+ (+ = 15 ≤ AUC < 100),12,14
"Cc1cc(-c2cc3c(cc2Nc2cccc4c2C(=O)N([C@H]2CCC(=O)NC2=O)C4=O)N(C)C(=O)O[C@@H]3C)ccn1 [Compound 21, 4-(((R)-1,4-dimethyl-6-(2-methylpyridin-4-yl)-2-oxo-1,4-dihydro-2H-benzo[d][1,3]oxazin-7-yl)amino)-2-((S)-2,6-dioxopiperidin-3-yl)isoindoline-1,3-dione]",+ (+ = 15 ≤ AUC < 100),12,17
"Cc1cc(-c2cc3c(cc2Nc2cccc4c2C(=O)N([C@H]2CCC(=O)NC2=O)C4=O)N(C)C(=O)O[C@H]3C)ccn1 [Compound 22, 4-(((S)-1,4-dimethyl-6-(2-methylpyridin-4-yl)-2-oxo-1,4-dihydro-2H-benzo[d][1,3]oxazin-7-yl)amino)-2-((S)-2,6-dioxopiperidin-3-yl)isoindoline-1,3-dione]",+++ (+++ = AUC ≥ 150),13,17
"Cc1cc(-c2cc3c(cc2Nc2cccc4c2C(=O)N([C@H]2CCC(=O)NC2=O)C4=O)N(C)C(=O)[C@H](C)O3)cc(C)n1 [Compound 23, 4-(((S)-7-(2,6-dimethylpyridin-4-yl)-2,4-dimethyl-3-oxo-3,4-dihydro-2H-benzo[b][1,4]oxazin-6-yl)amino)-2-((S)-2,6-dioxopiperidin-3-yl)isoindoline-1,3-dione]",++ (++ = 100 ≤ AUC < 150),15,11
